Values quoted from earlier work as cited in patent US20070116778A1 (priority 2005, published 2007).

Columns and labels:
HIV = settings: human, in vivo

Structure (SMILES): CCCCCCCCCCCC(=O)OCC(O)CO (stereo not drawn) [Monolaurin]
- effect on the pathogen (Neisseria gonorrhoae): dissolves the outer lipid membrane and interferes with transcriptinase production
- patients with reduced viral load (HIV): 8 patients
- side effects (HIV): without any side effects
